Measurements published in patent US11826403B2, “Target for diabetes treatment and prevention” (UNIVERSITE DE STRASBOURG, priority 2014, dated 2023).

Legend:
human mature adipocytes [1] = assay: 2-NBDG absorption in control and ALMS1-silenced mature adipocytes; type: cell-based; conditions: for 2-NBDG absorption: ALMS1-silenced adipocytes, 30 min stimulation
Description: (§1) Cell culture. Human white visceral preadipocytes (Catalog #: C-12732; PromoCell) and human mesenchymal stem cells (Catalog #: C-12974; PromoCell) derived from healthy bone marrow were purchased. The preadipocytes were seeded according to manufacturer's protocol and cultured in the Preadipocyte growth medium (Catalog #: C-27410; PromoCell) to confluence. One day before inducing terminal adipogenesis, the cells were infected with specific lentiviral particles consisted of a pool of 3 shRNAs target-specific constructs purchased from Santa Cruz Biotechnology and on the next day, adipogenic differentiation was induced by changing the medium to the Preadipocyte Differentiation Medium (Catalog #: C-27436; PromoCell) for 2 days. After the differentiation phase, the medium was finally changed to the Adipocyte Nutrition medium (Catalog #: C-27438; PromoCell). For the culture without insulin, Adipocyte Basal Medium (Catalog #: C-2431; PromoCell) without insulin was complemented with 5 g/L of deoxyglucose, 8 μg/mL d-Biotin, 400 ng/mL Dexamethasone. For the hMSCs, they were cultured in Mesenchymal Stem Cell Growth Medium (Catalog #: C-28010; PromoCell) to confluence. hMSCs were transfected with specific siRNAs as described above and on the next day adipogenic differentiation was induced by changing the medium to the MSC Adipogenic Differentiation Medium (Catalog #: C28011; Promocell).
Following ALMS1 silencing in 2-week-old mature adipocytes, glucose absorption capacity was assessed using labelled glucose analogue (2-NBDG). In the absence of insulin stimulation, no 2-NBDG uptake could be detected in ALMS1-silenced and control mature adipocytes (FIG. 2A). […] Further to reduced glucose absorption in ALMS1-silenced adipocytes, the inventors observed a reduction in intracellular triglycerides (TG) in these cells a week later (FIGS. 2C-D). […]

human mature adipocytes [2] = assay: Acridine orange acidification of adipocytes (time lapse); type: cell-based
Description: While AKT-phosphorylation of TBC1D4 has been known to in some way lead to GLUT4 trafficking, the ultimate GSV-PM fusion step is an insulin regulated non-AKT dependent event that requires osmotic swelling of the GSVs under the action of the vATPase H^+ pump. However, knowledge of the actual signal and mechanism for activation of the H^+ pump by insulin was missing. The inventors tested if ALMS1 inactivation could prevent the acidification of the GSVs and therefore the chemo-osmotic-mediated release of GLUT4 to the PM using the acidotrophic dye, acridine orange, which emits a green fluorescence at low concentration and an orange-red fluorescence at high concentrations in the lysosomes in which acridine orange is protonated and sequestered. In absence of insulin, no orange-red fluorescence was detected in the adipocytes.
(§2) The inventors next tested whether acidifying ALMS1-silenced adipocytes using Nigericin (NIG.), an electroneutral K^+/H^+ exchange ionophore known to cause osmotic swelling of the GSVs would bypass the Alms1-associated defect in GLUT4 fusion and glucose absorption.

human mature adipocytes [3] = assay: Electron microscopy of vesicle swelling and fusion with the plasma membrane; type: cell-based
Description: as §2

[4] = system: ALMS1-silenced adipocytes; assay: Immunodetection of GLUT4 / TBC1D4 at the plasma membrane in ALMS1-silenced adipocytes; type: cell-based, human; conditions: NIG-treated ALMS1-silenced adipocytes
Description: Western blots and immunofluorescence microscopy. Male Alms1^foz/foz and WT littermates were anaesthetized. The following insulin sensitive tissues: liver, heart, muscle and adipose tissue were harvested and directly placed in RIPA buffer (Tris 50 mM, NaCl 150 mM, 0.1% SDS, 1% Triton-X100) supplemented with Complete mini protease inhibitor cocktail and PhosSTOP phosphatase inhibitor cocktail (Roche, Switzerland). Samples were sonicated and centrifuged […] at 17 000 g, 4° C. […]. Protein concentration assayed with BCA assay (Thermo Fisher Scientific, USA). Cellular proteins from cells were obtained by trichloroacetic acid precipitation and immunoblot analyses were performed using 30-50 μg total protein. Specific antibody binding was visualized using the SuperSignal® West Femto Maximum Sensitivity Substrate (catalog #: Lf145954, Pierce) on a BioRad Versadoc™ Imaging System or ImageQuant LAS 4000 imager (GE Healthcare, UK). Nonspecific proteins stained with Ponceau S were used as loading controls to normalize the signal obtained after specific immunodetection of the protein of interest using the Bio-Rad Quantity One program. For immunofluorescence experiments, the cells were seeded on permanox 8-wells Lab-Tek II Chamber Slide (Catalog #: 177445; NUNC). Cells were treated as indicated. […]

[5] = system: ALMS1-silenced adipocytes; assay: Intracellular triglyceride (TG) filling of ALMS1-silenced adipocytes; type: cell-based, human; conditions: 24-hours post NIG treatment
Description: Fluorescence measurement. The preadipocytes were cultured in a 96 well plate and 12 wells infected with the either ALMS1 shRNA lentiviral particles or CTRL shRNA lentiviral particles and differentiated the next day into mature adipocytes. 3 weeks later, the intracellular triglycerides were stained with AdipoRed staining following the manufacturer's procedure and the fluorescence was measured on a Tecan Infinite 200 quad4 monochromator (Tecan, Lyon, France) at a wavelength of 520 nm. The generated data were then analyzed using the Tecan Magellan Data Analysis software using as blank unstained adipocytes. The inventors next tested whether acidifying ALMS1-silenced adipocytes using Nigericin (NIG.), an electroneutral K^+/H^+ exchange ionophore known to cause osmotic swelling of the GSVs would bypass the Alms1-associated defect in GLUT4 fusion and glucose absorption.

Alms1foz/foz mice = assay: Insulin tolerance test (ITT) in Alms1foz/foz mice; type: in vivo, mouse
Description: Six month old obese and young (<60 days old) nonobese Alms1^foz/foz mice and wildtype (WT) littermates were used to investigate what primary metabolic impairment leads Alms1^foz/foz mice to develop T2DM. Six month old Alms1^foz/foz mice were obese with an average body weight of 45.5 g±1.7 g compared to 26.4 g±1.3 g for WT littermates (FIG. 1A) and as previously shown had fasting hyperglycaemia and impaired glucose tolerance with elevated HOMA scores. […] (FIG. 1C). Obesity of Alms1^foz/foz mice was due to severe adipocyte hypertrophy (FIG. 1B) rather than the adipocyte hyperplasia more typically seen in obese BBS mice. To determine what the primary defect was that was causing the glucose intolerance in Alms1^foz/foz mice, young lean Alms1^foz/foz mice were studied to remove the confounding effect of obesity on insulin responsiveness. […]
Biochemical tests. […] Tail blood was obtained and the plasma glucose was determined for each mouse using a glucometer (Optium Xceed, Abbott, USA) and blood glucose test strips (Optium point of care, Abbott, USA) at 0, 15, 30 and 60 min after insulin injection. […] Plasma glucose was determined for each mouse using a glucometer with sampling via tail vein at 0, 15, 30, 60 and 120 min after glucose injection. […] The homeostasis model assessment of insulin resistance (HOMA-IR) index was calculated using individual mouse fasting insulin and fasting glucose levels. […]

mature adipocytes = assay: 2-NBDG glucose absorption in mature adipocytes infected with min-αPKC lentiviral particles; type: cell-based, human; conditions: n=8 per group
Description: as §1, with “Promocell). […]” for “Promocell).”

[6] = control human mature adipocytes

Row | Molecule | 2-NBDG absorption (human mature adipocytes [1]) | acidification (acridine orange orange-red fluorescence) (human mature adipocytes [2]; ALMS1-silenced adipocytes) | acidification (acridine orange orange-red fluorescence) (human mature adipocytes [2]; [6]) | vesicular swelling and fusion with the PM (human mature adipocytes [3]; ALMS1-silenced adipocytes) | vesicular swelling and fusion with the PM (human mature adipocytes [3]; control adipocytes) | GLUT4 fusion with the PM [4] | TG-filling of adipocytes [5] | 2-NBDG uptake (human mature adipocytes [1]; control human mature adipocytes, insulin stimulation) | insulin responsiveness (ITT) (Alms1foz/foz mice; 2 months old nonobese Alms1foz/foz males) | glycaemia response to insulin administration (ITT) (Alms1foz/foz mice; six month old obese Alms1foz/foz mice, doses as high as 20 U/kg) | 2-NBDG absorption, increase compare to control (mature adipocytes; absence of INS, control lentiviral particles as comparator) | 2-NBDG absorption versus control (mature adipocytes; presence of INS)
1 | CO[C@@H]1C[C@@H](C[C@H]2CC[C@H](C)[C@H]([C@@H](C)C(=O)O)O2)O[C@]2(O[C@](C)([C@H]3CC[C@@](C)([C@@H]4O[C@@H]([C@H]5O[C@@](O)(CO)[C@H](C)C[C@@H]5C)C[C@@H]4C)O3)C[C@H]2C)[C@@H]1C [Nigericin] | restore 2-NBDG absorption in the ALMS1-silenced adipocytes to levels seen in control cells | rapid acidification | rapid acidification | induced vesicular swelling and fusion with the PM | induced vesicular swelling and fusion with the PM | restored GLUT4 fusion with the PM | restoration of TG-filling |  |  |  |  | 
2 | insulin | little effect | loss of insulin-mediated acidification | rapid appearance of red color | not in ALMS1-silenced adipocytes | swelling of the vesicles |  |  | increased 2-NBDG uptake | significantly reduced insulin responsiveness | unresponsive |  | 
3 | min-αPKC-FLAG: minimum ALMS1-interacting domain of αPKC (SEQ ID NOs: 14 and 15) with Flag-TAG, expressed from a lentiviral vector |  |  |  |  |  |  |  |  |  |  | 3.5 times | no significant difference
